Tests used:
Conditions in all cases: 48 h
NOMO1 [1] = assay: cell viability relative to DMSO control; higher = less cytotoxic
How it was run: (§1)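 Library compounds in DMSO were pin-dosed into 1536-well plates (5 μl) holding NOMO1 or SEM (500 cells/well) or P12-Ichikawa (1000 cells/well) leukemia cells, across an 11-point threefold series of 47 μM to 0.79 nM. Each cell line had been adapted for at least four passages in each medium. CellTiter-Glo One luminescence was read after 48 h at 37°C. Viability is the per-plate percentage relative to DMSO wells, with cell-free wells as background.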

SEM cells [2] = assay: as above
How it was run: as §1

P12-Ichikawa [3] = assay: as above
How it was run: as §1

NOMO1 [4] = assay: AUC of viability dose-response curve (% viability x log10 dose units); higher = less sensitive
How it was run: (§2)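 Viability of medium-adapted leukemia cells was measured by CellTiter-Glo One luminescence after 48 h at 37°C with library compounds in DMSO. Doses were 11 threefold steps from 47 μM to 0.79 nM, in 1536-well plates at 500 or 1000 cells/well. Signals were normalised per plate to DMSO and cell-free wells and fitted with a four-parameter log-logistic model on log10 dose. Area under the curve was integrated by trapezoidal rule, with curves exceeding full viability scaled and failed quality-control curves removed.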

SEM cells [5] = assay: as above
How it was run: as §2

P12-Ichikawa [6] = assay: as above
How it was run: as §2

CCN(CC)CCCC(C)Nc1ccnc2cc(Cl)ccc12 (configuration not stated)
cell viability [%]
Conditions	NOMO1 [1]	P12-Ichikawa [3]	SEM cells [2]
HPLM + 10% dialyzed FBS, 0.000781 µM	112	105	108
HPLM + 10% dialyzed FBS, 0.00234 µM	100	110	113
HPLM + 10% dialyzed FBS, 0.00702 µM	124	112	116
HPLM + 10% dialyzed FBS, 0.0211 µM	115	117	121
HPLM + 10% dialyzed FBS, 0.0632 µM	120	119	122
HPLM + 10% dialyzed FBS, 0.19 µM	103	121	128
HPLM + 10% dialyzed FBS, 0.569 µM	104	113	116
HPLM + 10% dialyzed FBS, 1.71 µM	69.7	109	117
HPLM + 10% dialyzed FBS, 5.12 µM	74	101	134
HPLM + 10% dialyzed FBS, 15.4 µM	31.6	27.5	127
HPLM + 10% dialyzed FBS, 46.1 µM	31.5	21	102
RPMI 5 mM glucose + 10% FBS, 0.000781 µM	103	105	102
RPMI 5 mM glucose + 10% FBS, 0.00234 µM	112	114	117
RPMI 5 mM glucose + 10% FBS, 0.00702 µM	99.2	108	119
RPMI 5 mM glucose + 10% FBS, 0.0211 µM	102	102	104
RPMI 5 mM glucose + 10% FBS, 0.0632 µM	117	111	109
RPMI 5 mM glucose + 10% FBS, 0.19 µM	108	112	111
RPMI 5 mM glucose + 10% FBS, 0.569 µM	110	107	100
RPMI 5 mM glucose + 10% FBS, 1.71 µM	92.8	103	129
RPMI 5 mM glucose + 10% FBS, 5.12 µM	99.7	101	118
RPMI 5 mM glucose + 10% FBS, 15.4 µM	21.1	21.4	106
RPMI 5 mM glucose + 10% FBS, 46.1 µM	18	20.7	94.4
RPMI 5 mM glucose + 10% dialyzed FBS, 0.000781 µM	124	107	105
RPMI 5 mM glucose + 10% dialyzed FBS, 0.00234 µM	120	109	98.6
RPMI 5 mM glucose + 10% dialyzed FBS, 0.00702 µM	118	106	103
RPMI 5 mM glucose + 10% dialyzed FBS, 0.0211 µM	134	109	103
RPMI 5 mM glucose + 10% dialyzed FBS, 0.0632 µM	120	106	99.9
RPMI 5 mM glucose + 10% dialyzed FBS, 0.19 µM	121	101	115
RPMI 5 mM glucose + 10% dialyzed FBS, 0.569 µM	120	117	109
RPMI 5 mM glucose + 10% dialyzed FBS, 1.71 µM	111	110	129
RPMI 5 mM glucose + 10% dialyzed FBS, 5.12 µM	107	98.2	104
RPMI 5 mM glucose + 10% dialyzed FBS, 15.4 µM	26.9	27.7	87
RPMI 5 mM glucose + 10% dialyzed FBS, 46.1 µM	26.5	22	92.4

AUC of viability dose-response curve
Conditions	NOMO1 [4]	P12-Ichikawa [6]	SEM cells [5]
HPLM + 10% dialyzed FBS	382	416	477
RPMI 5 mM glucose + 10% FBS	416	416	468
RPMI 5 mM glucose + 10% dialyzed FBS	416	418	468

CO[C@H]1C[C@@H]2CC[C@@H](C)[C@@](O)(O2)C(=O)C(=O)N2CCCC[C@H]2C(=O)O[C@H]([C@@H](C)C[C@@H]2CC[C@@H](O)[C@H](OC)C2)CC(=O)[C@H](C)/C=C(\C)[C@@H](O)[C@@H](OC)C(=O)[C@H](C)C[C@H](C)/C=C/C=C/C=C/1C
cell viability [%]
Conditions	NOMO1 [1]	P12-Ichikawa [3]	SEM cells [2]
HPLM + 10% dialyzed FBS, 0.000781 µM	106	118	95.4
HPLM + 10% dialyzed FBS, 0.00234 µM	110	127	95.3
HPLM + 10% dialyzed FBS, 0.00702 µM	112	122	88
HPLM + 10% dialyzed FBS, 0.0211 µM	91	125	83.2
HPLM + 10% dialyzed FBS, 0.0632 µM	95.3	124	86.9
HPLM + 10% dialyzed FBS, 0.19 µM	112	116	81.7
HPLM + 10% dialyzed FBS, 0.569 µM	103	121	81.9
HPLM + 10% dialyzed FBS, 1.71 µM	104	124	74.2
HPLM + 10% dialyzed FBS, 5.12 µM	81.6	113	80.1
HPLM + 10% dialyzed FBS, 15.4 µM	88.7	112	79.5
HPLM + 10% dialyzed FBS, 46.1 µM	81.5	91.8	61.3
RPMI 5 mM glucose + 10% FBS, 0.000781 µM	113	–	98.6
RPMI 5 mM glucose + 10% FBS, 0.00234 µM	116	–	84.3
RPMI 5 mM glucose + 10% FBS, 0.00702 µM	128	–	89.4
RPMI 5 mM glucose + 10% FBS, 0.0211 µM	136	–	94.9
RPMI 5 mM glucose + 10% FBS, 0.0632 µM	136	–	80.6
RPMI 5 mM glucose + 10% FBS, 0.19 µM	109	–	77.3
RPMI 5 mM glucose + 10% FBS, 0.569 µM	113	–	75.7
RPMI 5 mM glucose + 10% FBS, 1.71 µM	118	–	80.7
RPMI 5 mM glucose + 10% FBS, 5.12 µM	97.3	–	68
RPMI 5 mM glucose + 10% FBS, 15.4 µM	111	–	70.6
RPMI 5 mM glucose + 10% FBS, 46.1 µM	103	–	60.6
RPMI 5 mM glucose + 10% dialyzed FBS, 0.000781 µM	112	–	96.9
RPMI 5 mM glucose + 10% dialyzed FBS, 0.00234 µM	116	–	87.2
RPMI 5 mM glucose + 10% dialyzed FBS, 0.00702 µM	121	–	102
RPMI 5 mM glucose + 10% dialyzed FBS, 0.0211 µM	106	–	85.7
RPMI 5 mM glucose + 10% dialyzed FBS, 0.0632 µM	108	–	89.8
RPMI 5 mM glucose + 10% dialyzed FBS, 0.19 µM	117	–	81.3
RPMI 5 mM glucose + 10% dialyzed FBS, 0.569 µM	111	–	85.5
RPMI 5 mM glucose + 10% dialyzed FBS, 1.71 µM	115	–	84.4
RPMI 5 mM glucose + 10% dialyzed FBS, 5.12 µM	128	–	81.6
RPMI 5 mM glucose + 10% dialyzed FBS, 15.4 µM	105	–	81.7
RPMI 5 mM glucose + 10% dialyzed FBS, 46.1 µM	99.9	–	52.6

AUC of viability dose-response curve
Conditions	NOMO1 [4]	P12-Ichikawa [6]	SEM cells [5]
HPLM + 10% dialyzed FBS	454	465	394
RPMI 5 mM glucose + 10% FBS	442	415	382
RPMI 5 mM glucose + 10% dialyzed FBS	466	443	409

CC[C@H](C)C(=O)O[C@H]1C[C@@H](C)\C=C2\C=C/[C@H](C)[C@H](CC[C@@H]3C[C@@H](O)CC(=O)O3)[C@@H]12
cell viability [%]
Conditions	NOMO1 [1]	P12-Ichikawa [3]	SEM cells [2]
HPLM + 10% dialyzed FBS, 0.000781 µM	95.9	91.8	71.1
HPLM + 10% dialyzed FBS, 0.00234 µM	103	94.1	85.1
HPLM + 10% dialyzed FBS, 0.00702 µM	100	93.3	100
HPLM + 10% dialyzed FBS, 0.0211 µM	108	91.4	87.9
HPLM + 10% dialyzed FBS, 0.0632 µM	96.3	92.1	90.3
HPLM + 10% dialyzed FBS, 0.19 µM	92.8	87.7	93.8
HPLM + 10% dialyzed FBS, 0.569 µM	90.6	97.1	56.6
HPLM + 10% dialyzed FBS, 1.71 µM	89.9	91.7	86
HPLM + 10% dialyzed FBS, 5.12 µM	93.3	89.3	82.6
HPLM + 10% dialyzed FBS, 15.4 µM	69.4	64.5	59.8
HPLM + 10% dialyzed FBS, 46.1 µM	53.5	46.8	65.7
RPMI 5 mM glucose + 10% FBS, 0.000781 µM	87.5	76.3	51.9
RPMI 5 mM glucose + 10% FBS, 0.00234 µM	89.1	90.1	91.1
RPMI 5 mM glucose + 10% FBS, 0.00702 µM	89.7	87.6	92.5
RPMI 5 mM glucose + 10% FBS, 0.0211 µM	98.9	89.1	89.8
RPMI 5 mM glucose + 10% FBS, 0.0632 µM	83.5	84.5	93.2
RPMI 5 mM glucose + 10% FBS, 0.19 µM	90	82.3	95
RPMI 5 mM glucose + 10% FBS, 0.569 µM	88.4	89.6	84.8
RPMI 5 mM glucose + 10% FBS, 1.71 µM	80.5	84.9	81.9
RPMI 5 mM glucose + 10% FBS, 5.12 µM	86.8	83.1	81.2
RPMI 5 mM glucose + 10% FBS, 15.4 µM	77.1	44.1	63.2
RPMI 5 mM glucose + 10% FBS, 46.1 µM	71.4	24	64.5
RPMI 5 mM glucose + 10% dialyzed FBS, 0.000781 µM	80.3	80	80.9
RPMI 5 mM glucose + 10% dialyzed FBS, 0.00234 µM	93	89.8	84.6
RPMI 5 mM glucose + 10% dialyzed FBS, 0.00702 µM	84.6	89.5	106
RPMI 5 mM glucose + 10% dialyzed FBS, 0.0211 µM	97	85.5	92.6
RPMI 5 mM glucose + 10% dialyzed FBS, 0.0632 µM	91.7	94.6	97
RPMI 5 mM glucose + 10% dialyzed FBS, 0.19 µM	91	88.3	108
RPMI 5 mM glucose + 10% dialyzed FBS, 0.569 µM	91.3	84.4	30
RPMI 5 mM glucose + 10% dialyzed FBS, 1.71 µM	82	77.9	99.8
RPMI 5 mM glucose + 10% dialyzed FBS, 5.12 µM	90.7	77.4	98
RPMI 5 mM glucose + 10% dialyzed FBS, 15.4 µM	77.4	54.8	71.6
RPMI 5 mM glucose + 10% dialyzed FBS, 46.1 µM	54.9	29.7	61.1

AUC of viability dose-response curve
Conditions	NOMO1 [4]	P12-Ichikawa [6]	SEM cells [5]
HPLM + 10% dialyzed FBS	437	415	384
RPMI 5 mM glucose + 10% FBS	411	373	386
RPMI 5 mM glucose + 10% dialyzed FBS	411	379	408

— the supplement of paper PMC11451515
